Test results taken from paper PMC8991007, “Benzylic Dehydroxylation of Echinocandin Antifungal Drugs Restores Efficacy against Resistance Conferred by Mutated Glucan Synthase” (Journal of the American Chemical Society, 2022).
In brackets after ≈: the same amount, converted by molar mass. Read-outs that look alike come from different tables or passages of the source. *1 amine or outer side, *2 acyl side, *3 side chain or, on linkers, in order; H or OH if unused. Where a SMILES comes first, the peptide text is derived from it. Bridges are numbered along the chain shown (N, C = ends). [ ]: non-standard residue; d: D form. The star is where a group is joined. Orn(4R-OH,5R-OCH2CH2NMe3+) = C[N+](C)(C)CCO[C@@H](N[*:3])[C@H](O)C[C@H](N[*:1])C(=O)[*:2]; pTerphenylCO(4''-OnC5H11) = CCCCCOc1ccc(-c2ccc(-c3ccc(C(=O)*)cc3)cc2)cc1; Orn(4R-OH,5R-OH) = O=C([C@H](C[C@@H](O)[C@@H](O)N[*:3])N[*:1])[*:2]; hTyr(3S-OH,4S-OH) = N[C@H](C(=O)O)[C@H](O)[C@@H](O)c1ccc(O)cc1; Pro(3S-OH,4S-Me) = C[C@H]1CN[C@H](C(=O)O)[C@H]1O; hTyr(3R-OH) = N[C@H](C(=O)O)[C@H](O)Cc1ccc(O)cc1; Hyp = O=C(O)[C@@H]1C[C@@H](O)CN1

How the values were obtained:
[1] = tested on: UACC-62; experiment: cells; format: cell-based; details: Homo sapiens; UACC-62 expressing GFP, 24 h, mean ± SD; read-out: IC50 (cell viability)
Procedure: (§1) In this analysis, we used HCT-116, a human colorectal carcinoma cell line; UACC-62, a human melanoma cell line; Hs 578T, a human mammary gland carcinoma cell line, and SF-295, a human glioblastoma cell line. […] The highest concentration of the echinocandins used for the cell viability tests was determined based on the reported maximal plasma concentrations (Cmax) of ANF and RZF measured in humans. A Cmax of approximately 7 μM was measured during a pharmacokinetic study of ANF in patients with candidemia or invasive candidiasis who were treated with a 200 mg loading dose on day 1, followed by a daily 100 mg maintenance dose.[64]
(§2) Human cell lines HCT-116, UACC-62, Hs 578T, and SF-295 were obtained from the Life Sciences Core Facilities of the Nancy & Stephen Grand Israel National Center for Personalized Medicine. Cell lines were grown in an RPMI medium (Gibco, cat. no. 21875-034) supplemented with 10% fetal calf serum (Biological Industries, cat. no. 04-007-1A), Pen/Strep (Biological Industries, cat. no. 03-031-1B), and glutamine (Biological Industries, cat. no. 03-020-1B). GFP was introduced into cells using TALENS according to a previously reported protocol.[73] GFP cells were selected by FACS and propagated.
(§3) Assay-ready plates were designed using in-house software (CHEMPION, INCPM software development team) and prepared in 384-well Greiner plates (cat. no. 781091) using an Echo 555 Acoustic Liquid Handler (Labcyte). The final DMSO concentration in all samples was 0.4%. Prior to the experiment, cells were trypsinized and counted using a Countess cytometer. Cells were then diluted to 40,000 cells/mL in a fresh medium. Cells (50 μL/well; 2000 cells/well) were then dispensed with a Thermo Combi dispenser into plates containing predispensed compounds. After 30 min at room temperature to ensure uniform adherence of cells, the plates were moved to an automated incubator (Liconic STX44) and incubated at 37 °C. An automated confocal microscope with a 4× S Fluor lens (Molecular Devices ImageExpress) was used to acquire images of GFP-expressing cells after 24 h of incubation. Images were then analyzed using MetaExpress with a custom protocol (Custom Module Editor), and data were annotated and normalized using Genedata Screener software. Final normalized data were then loaded into CDD Vault software for comparative data visualization.

[2] = tested on: HCT-116; experiment: cells; format: cell-based; details: Homo sapiens; HCT-116 expressing GFP, 24 h, mean ± SD; read-out: IC50 (cell viability)
Procedure: as §1, §2, §3

[3] = tested on: Hs 578T; experiment: Phenotypic viability assay of GFP reporter cell line; format: cell-based; details: Homo sapiens; Hs 578T expressing GFP, 24 h, mean ± SD
Procedure: as §1, §2, §3

[4] = tested on: C. glabrata; experiment: Minimum inhibitory concentration broth double-dilution assay; format: cell-based, Candida glabrata; details: 24 h, 30 °C
Procedure: (§4) The antifungal activities of compounds 1 and 2 were evaluated against a panel of 50 strains of C. albicans and C. glabrata (Table S4), including echinocandin-resistant strains that were constructed by introducing mutations within and near the defined hotspots in the FKS1 and/or FKS2 genes.[27] To evaluate antifungal activity, we determined MIC values. The MIC was defined as the lowest drug concentration that led to turbidity (measured at 600 nm) of less than or equal to 35% of that of the untreated culture. As controls, we tested CSF, MCF, ANF, and RZF.
(§5) All of the tested compounds were dissolved in anhydrous DMSO to a concentration of 5 mg/mL. Candida strains were streaked from a glycerol stock onto YPAD agar plates and grown for 24 h at 30 °C. Colonies were suspended in 1 mL of PBS and diluted to an O.D. of 0.01 at 600 nm with YPAD broth and added into flat-bottom 96-well microplates (Corning) containing a gradient of twofold dilutions per tested compound with concentrations ranging from 64 to 0.0009 μg/mL. Control wells with no drug and blank wells without yeast cells containing YPAD only were also prepared. […] Each concentration was tested in triplicate, and results were confirmed by at least two independent sets of experiments.

[5] = tested on: C. albicans; experiment: as above; format: cell-based, Candida albicans; details: for MIC: 24 h, 30 °C
Procedure: as §4, §5

[6] = tested on: THLE-2 cells; experiment: cells; format: cell-based; details: Homo sapiens
Procedure: The effects of ANF and RZF and their dehydroxylated derivatives 1 and 2 on the viability of human cells were further evaluated in an assay with THLE-2 cells, which are a transformed human liver epithelial cell line. These cells express phenotypic characteristics of normal adult liver epithelial cells.
THLE-2 cells (ATCC, cat. no. CRL2706) were cultured in 384-well plates coated with BEBM (Lonza, cat. no CC3170) containing 100 μg/mL BSA, 1:100 fibronectin (Sigma, cat. no. F0895), and a 1:100 PureCol EZ Gel Solution (Sigma, cat. no. 5074) for 50–60 min at 37 °C. THLE-2 cells were plated at a density of 2.5 × 10^3 cells/well in the coated plates in a total volume of 20 μL. Culture media were BEGM supplemented with 5 ng/mL hEGF (Sigma, cat. no. E5036), 70 ng/mL phosphoethanolamine (Sigma, cat. no. P0503), and 10% fetal bovine serum. Plates were incubated overnight at 37 °C, 95% humidity, and 5% CO2. The culture medium was replaced with 50 μL of a fresh medium, and compounds were applied to the cells in triplicate. Plates were cultured for another 72 h, and ATP was quantified using a CellTiter-Glo kit (Promega #G7573) according to the manufacturer’s protocol. The luminescence signal was detected using a PHERAstar FS (BMG Labtech).

[7] = #2 C. albicans DPL1015 (DP-A15)
[8] = #3 C. albicans DPL1016 (DP-A15-10)
[9] = THLE-2, 72 h of incubation, ranges for ANF and 1 and for RZF and 2 stated jointly, read-out: IC50 value (THLE-2 viability)
[10] = THLE-2, 72 h, ATP luminescence, read-out: IC50 (cell viability)

CCCCCOc1ccc(-c2ccc(-c3ccc(C(=O)N[C@H]4C[C@@H](O)[C@@H](O)NC(=O)[C@@H]5[C@@H](O)[C@@H](C)CN5C(=O)[C@H]([C@@H](C)O)NC(=O)[C@H]([C@H](O)[C@@H](O)c5ccc(O)cc5)NC(=O)[C@@H]5C[C@@H](O)CN5C(=O)[C@H]([C@@H](C)O)NC4=O)cc3)cc2)cc1 [ANF, anidulafungin] ({pTerphenylCO(4''-OnC5H11)}-[Orn(4R-OH,5R-OH)]T[Hyp][hTyr(3S-OH,4S-OH)]T[Pro(3S-OH,4S-Me)]; lactam 1-C)
IC50 [1]: 34.5 ± 4.15 µM
IC50 [2]: > 40 µM
IC50 [3]: > 40 µM
MIC ([4]; #9 C. glabrata EF1620): 0.008 µg/mL (≈ 0.00702 µM)
MIC ([4]; #10 C. glabrata TGL00277): > 64 µg/mL
MIC ([4]; #11 C. glabrata TGL00275): 4 µg/mL (≈ 3.51 µM)
MIC ([4]; #12 C. glabrata CST78): 0.004 µg/mL (≈ 0.00351 µM)
MIC ([4]; #13 C. glabrata TGL00265): 4 µg/mL (≈ 3.51 µM)
MIC ([4]; #14 C. glabrata TGL00264): 32 µg/mL (≈ 28.1 µM)
MIC ([4]; #15 C. glabrata TGL00263): 2 µg/mL (≈ 1.75 µM)
MIC ([4]; #16 C. glabrata TGL00065): 8 µg/mL (≈ 7.02 µM)
MIC ([4]; #17 C. glabrata CST34): 0.008 µg/mL (≈ 0.00702 µM)
MIC ([4]; #18 C. glabrata TGL00258): > 64 µg/mL
MIC ([4]; #19 C. glabrata TGL00256): 2 µg/mL (≈ 1.75 µM)
MIC ([4]; #20 C. glabrata TGL00107): > 64 µg/mL
MIC ([4]; #21 C. glabrata TGL00056): > 64 µg/mL
MIC ([4]; #22 C. glabrata M12): 0.002 µg/mL (≈ 0.00175 µM)
MIC ([4]; #23 C. glabrata TGL00270): 4 µg/mL (≈ 3.51 µM)
MIC ([4]; #24 C. glabrata TGL00269): 0.25 µg/mL (≈ 0.219 µM)
MIC ([4]; #25 C. glabrata TGL00268): > 64 µg/mL
MIC ([4]; #26 C. glabrata TGL00268): > 64 µg/mL
MIC ([4]; #27 C. glabrata EB0911): 0.004 µg/mL (≈ 0.00351 µM)
MIC ([4]; #28 C. glabrata TGL00261): 2 µg/mL (≈ 1.75 µM)
MIC ([4]; #29 C. glabrata TGL00109): > 64 µg/mL
MIC ([4]; #30 C. glabrata TGL00259): 16 µg/mL (≈ 14 µM)
MIC ([5]; #1 C. albicans Sc5314): 0.004 µg/mL (≈ 0.00351 µM)
MIC [5, 7]: 0.063 µg/mL (≈ 0.0553 µM)
MIC [5, 8]: 4 µg/mL (≈ 3.51 µM)
MIC ([5]; #4 C. albicans T-2068 (DP-C42)): 2 µg/mL (≈ 1.75 µM)
MIC ([5]; #5 C. albicans T-2069 (DP-85)): 2 µg/mL (≈ 1.75 µM)
MIC ([5]; #6 C. albicans (DP-89)): 2 µg/mL (≈ 1.75 µM)
MIC ([5]; #7 C. albicans T-2076 (DP-194)): 0.5 µg/mL (≈ 0.438 µM)
MIC ([5]; #8 C. albicans T-2077 (DP-205)): 0.5 µg/mL (≈ 0.438 µM)
IC50 [6, 9]: 36 to 41 µM
IC50 [6, 10]: 40.6 ± 2.9 µM

CCCCCOc1ccc(-c2ccc(-c3ccc(C(=O)N[C@H]4C[C@@H](O)[C@@H](OCC[N+](C)(C)C)NC(=O)[C@@H]5[C@@H](O)[C@@H](C)CN5C(=O)[C@H]([C@@H](C)O)NC(=O)[C@H]([C@H](O)Cc5ccc(O)cc5)NC(=O)[C@@H]5C[C@@H](O)CN5C(=O)[C@H]([C@@H](C)O)NC4=O)cc3)cc2)cc1 [Compound 2, dehydroxy-RZF] ({pTerphenylCO(4''-OnC5H11)}-[Orn(4R-OH,5R-OCH2CH2NMe3+)]T[Hyp][hTyr(3R-OH)]T[Pro(3S-OH,4S-Me)]; lactam 1-C)
IC50 [1]: 29.2 ± 5.2 µM
IC50 [2]: 34.1 ± 11.5 µM
IC50 [3]: > 40 µM
MIC ([4]; #9 C. glabrata EF1620): 0.015 µg/mL
MIC ([4]; #10 C. glabrata TGL00277): 16 µg/mL
MIC ([4]; #11 C. glabrata TGL00275): 8 µg/mL
MIC ([4]; #12 C. glabrata CST78): 0.004 µg/mL
MIC ([4]; #13 C. glabrata TGL00265): 2 µg/mL
MIC ([4]; #14 C. glabrata TGL00264): 32 µg/mL
MIC ([4]; #15 C. glabrata TGL00263): 2 µg/mL
MIC ([4]; #16 C. glabrata TGL00065): 8 µg/mL
MIC ([4]; #17 C. glabrata CST34): 0.004 µg/mL
MIC ([4]; #18 C. glabrata TGL00258): 8 µg/mL
MIC ([4]; #19 C. glabrata TGL00256): 0.25 µg/mL
MIC ([4]; #20 C. glabrata TGL00107): 16 µg/mL
MIC ([4]; #21 C. glabrata TGL00056): > 64 µg/mL
MIC ([4]; #22 C. glabrata M12): 0.002 µg/mL
MIC ([4]; #23 C. glabrata TGL00270): 4 µg/mL
MIC ([4]; #24 C. glabrata TGL00269): 0.063 µg/mL
MIC ([4]; #25 C. glabrata TGL00268): > 64 µg/mL
MIC ([4]; #26 C. glabrata TGL00268): > 64 µg/mL
MIC ([4]; #27 C. glabrata EB0911): 0.004 µg/mL
MIC ([4]; #28 C. glabrata TGL00261): 1 µg/mL
MIC ([4]; #29 C. glabrata TGL00109): 64 µg/mL
MIC ([4]; #30 C. glabrata TGL00259): 8 µg/mL
MIC ([4]; #31 C. glabrata EF1237): 0.002 µg/mL
MIC ([4]; #36 C. glabrata F15): 0.004 µg/mL
MIC ([4]; #38 C. glabrata CBS138 (ATCC 2001)): 0.008 µg/mL
MIC ([4]; #41 C. glabrata P35_2): 0.004 µg/mL
MIC ([4]; #43 C. glabrata SLL2glab): 0.008 µg/mL
MIC ([4]; #46 C. glabrata BG2): 0.008 µg/mL
MIC ([5]; #1 C. albicans Sc5314): 0.015 µg/mL
MIC [5, 7]: 0.062 µg/mL
MIC [5, 8]: 2 µg/mL
MIC ([5]; #4 C. albicans T-2068 (DP-C42)): 0.5 µg/mL
MIC ([5]; #5 C. albicans T-2069 (DP-85)): 0.5 µg/mL
MIC ([5]; #6 C. albicans (DP-89)): 1 µg/mL
MIC ([5]; #7 C. albicans T-2076 (DP-194)): 1 µg/mL
MIC ([5]; #8 C. albicans T-2077 (DP-205)): 0.25 µg/mL
MIC differences between RZF and dehydroxy derivative 2 (ratio MIC (RZF)/MIC (2)) ([5]; C. albicans strains 5 and 6, Fks1 serine 645 to phenylalanine or tyrosine): at least 8 fold
IC50 [6, 9]: 36 to 77 µM
IC50 [6, 10]: 55.9 ± 3 µM
